According to paper PMC10714930, “In silico virtual screening for the identification of novel inhibitors against dihydrodipicolinate reductase (DapB) of Mycobacterium tuberculosis, a key enzyme of diaminopimelate pathway” (Microbiology Spectrum, 2023):
Values after ≈ are worked out from the molar mass of the structure shown.

Tested on: M. tb.pFICTO-dapB
Assay: microbe, parasite or virus in culture
Format: cell-based, Mycobacterium tuberculosis

COC(=O)CCCc1nc2ccccc2nc1N=Nc1ccccc1 [Compound B59, 4-(3-Phenylazoquinoxalin-2-yl) butanoic acid methyl ester]
MIC99 in overexpressing strain relative to wild type (M. tb.pFICTO-dapB vs M. tb H37Rv): 2 x MIC99 | MIC99 (Mycobacterium tuberculosis, 168 h, M. tb.pFICTO-dapB, 7 days, read-out: MIC99 against DapB-overexpressing strain): 40 µg/mL (≈ 120 µM)
